Earlier results, collected in patent US12465608B2, “Osimertinib for use in the treatment of non-small cell lung cancer” (AstraZeneca AB, priority 2019, dated 2025).

Legend:
[1] = system: patients with EGFR mutation-positive NSCLC
[2] = system: patients with advanced EGFR mutation-positive NSCLC who were never- or light-former smokers; settings: erlotinib combined with carboplatin plus paclitaxel; subgroup of patients with EGFR mutations
[3] = system: patients with advanced mutation-positive EGFR (Ex19del or L858R) NSCLC; settings: for median progression free survival (PFS): first-line therapy, FLAURA

Compound | PFS hazard ratio (HR) ([1]; dacomitinib vs gefitinib, 95% CI 0.47-0.74, p<0.0001) | median PFS ([1]; first line treatment, EGFR mutation-positive NSCLC) [months] | side effects, combination vs erlotinib monotherapy [2] | median progression free survival (PFS) [3] [months] | events of CNS progression, patients ([3]; irrespective of known or treated CNS metastases at trial entry) [%] | PFS hazard ratio (HR) ([3]; osimertinib vs erlotinib or gefitinib, 95% CI 0.37, 0.57, p<0.0001) | median CNS PFS ([3]; patients with CNS metastases on a baseline brain scan) | reduction in the risk of CNS progression ([3]; patients with CNS metastases on a baseline brain scan, vs standard EGFR-TKIs) [%] | CNS PFS HR ([3]; patients with CNS metastases on a baseline brain scan, vs standard EGFR-TKIs, 95% CI 0.26-0.86, p=0.014)
COc1cc2ncnc(Nc3ccc(F)c(Cl)c3)c2cc1NC(=O)/C=C/CN1CCCCC1 [dacomitinib, (2E)-N-{4-[(3-chloro-4-fluorophenyl)amino]-7-methoxyquinazolin-6-yl}-4-(piperidin-1-yl)but-2-enamide] | 0.59 | 14.7 | – | – | – | – | – | – | –
C#Cc1cccc(Nc2ncnc3cc(OCCOC)c(OCCOC)cc23)c1 [erlotinib] | – | – | more side effects | 10.2 | – | – | – | – | –
C=CC(=O)Nc1cc(Nc2nccc(-c3cn(C)c4ccccc34)n2)c(OC)cc1N(C)CCN(C)C [osimertinib, N-(2-{2-dimethylaminoethyl-methylamino}-4-methoxy-5-{[4-(1-methylindol-3-yl)pyrimidin-2-yl]amino}phenyl) prop-2-enamide] | – | – | – | 18.9 | 6 | 0.46 | not reached | 52 | 0.48
